# ± gives the standard deviation of the averaged measurements.
# Experiments:
# Assay in all cases: relative cell number vs DMSO control (72 h) (% of DMSO); higher = less growth inhibition (more cells)
# Conditions in all cases: sgRNA knockout: sgNT
# BT-20 = test system: BT-20
# Experimental: (§1)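 QMAP-Seq: a pool of 5 breast cancer cell lines (ZR-75-1, SKBR3, HCC-38, MDA-MB-231, BT-20), each carrying 12 doxycycline-inducible Cas9 sgRNA perturbations (11 knockouts plus non-targeting sgNT), was treated with compounds for 72 h at four 10-fold doses (10 nM-10 uM or 1 nM-1 uM range). Barcodes were amplified and sequenced, and cell number was interpolated from 293T spike-in standard curves. The result is expressed as % of the median of DMSO wells. Two biological replicates.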
# HCC-38 = test system: HCC-38
# Experimental: as §1
# MDA-MB-231 = test system: MDA-MB-231
# Experimental: as §1
# SKBR3 = test system: SKBR3
# Experimental: as §1
# ZR-75-1 = test system: ZR-75-1
# Experimental: as §1
SMILES,relative cell number (BT-20; 1 nM),relative cell number (BT-20; 10 nM),relative cell number (BT-20; 100 nM),relative cell number (BT-20; 1000 nM),relative cell number (HCC-38; 1 nM),relative cell number (HCC-38; 10 nM),relative cell number (HCC-38; 100 nM),relative cell number (HCC-38; 1000 nM),relative cell number (MDA-MB-231; 1 nM),relative cell number (MDA-MB-231; 10 nM),relative cell number (MDA-MB-231; 100 nM),relative cell number (MDA-MB-231; 1000 nM),relative cell number (SKBR3; 1 nM),relative cell number (SKBR3; 10 nM),relative cell number (SKBR3; 100 nM),relative cell number (SKBR3; 1000 nM),relative cell number (ZR-75-1; 1 nM),relative cell number (ZR-75-1; 10 nM),relative cell number (ZR-75-1; 100 nM),relative cell number (ZR-75-1; 1000 nM),relative cell number (BT-20; 10000 nM),relative cell number (HCC-38; 10000 nM),relative cell number (MDA-MB-231; 10000 nM),relative cell number (SKBR3; 10000 nM),relative cell number (ZR-75-1; 10000 nM)
CN1CCN(c2ccc(C(=O)Nc3n[nH]c4ccc(Cc5cc(F)cc(F)c5)cc34)c(NC3CCOCC3)c2)CC1 [Entrectinib],102 ± 28,97.9 ± 13,91.6 ± 1.3,92.9 ± 5.6,90.4 ± 11,96.6 ± 2.2,89.3 ± 23,79.1 ± 6.5,86.7 ± 26,101 ± 9.8,93.3 ± 6.3,105 ± 6.8,113 ± 7.7,113 ± 3.7,82.9 ± 36,95 ± 19,73.5 ± 22,105 ± 44,73 ± 13,85.7 ± 8.3,,,,,
CCOc1ccccc1-n1c(C(C)N2CCN(C(=O)COc3ccc(Cl)cc3)CC2)nc2ccccc2c1=O (stereo not given) [Erastin],,122 ± 20,84.4 ± 8.1,99.8 ± 1.4,,97.1 ± 7.7,103 ± 9.8,99.2 ± 13,,90.4 ± 8.9,103 ± 30,87.6 ± 4.9,,111.3 ± 0.82,85.9 ± 42,118 ± 53,,99.6 ± 21,89.4 ± 42,81.3 ± 20,40 ± 1.6,60.1 ± 4.2,25.1 ± 4.8,46 ± 11,60.6 ± 13
C#Cc1cccc(Nc2ncnc3cc(OCCOC)c(OCCOC)cc23)c1 [Erlotinib],,103 ± 8.8,82.9 ± 2.6,81.9 ± 2,,105 ± 3,87.3 ± 9.9,99.1 ± 6.6,,98.8 ± 11,83.4 ± 2.6,98.4 ± 8.8,,124 ± 20,97.3 ± 14,79 ± 12,,99 ± 27,63.2 ± 3.8,97 ± 18,82.9 ± 8.9,94.8 ± 1.3,83.6 ± 2.8,43.6 ± 8.1,84.2 ± 26
CCOC(=O)[C@@]1(CCCCCCOc2ccc(Cl)cc2)CO1 [Etomoxir],,97.7 ± 1,90.3 ± 13,122 ± 23,,94.85 ± 0.42,94.52 ± 0.29,107 ± 19,,120 ± 25,109 ± 1.7,114 ± 30,,80.7 ± 22,98.3 ± 11,86.5 ± 40,,67.6 ± 37,90.7 ± 8.2,75.46 ± 0.14,107 ± 9.7,86.4 ± 3.9,92.8 ± 19,98.3 ± 36,57.2 ± 7.3
COc1cc([C@@H]2c3cc4c(cc3[C@@H](O[C@@H]3O[C@@H]5CO[C@@H](C)O[C@H]5[C@H](O)[C@H]3O)[C@H]3COC(=O)[C@H]23)OCO4)cc(OC)c1O [Etoposide],,87 ± 6.6,83 ± 1.2,52.6 ± 0.56,,75.4 ± 33,84.8 ± 13,31.6 ± 5.3,,81.6 ± 3.5,71.7 ± 1.1,21.8 ± 1.8,,58 ± 10,50.1 ± 4.5,31.3 ± 9.5,,56 ± 2.7,54.5 ± 4.6,46.8 ± 4.2,36 ± 15,20.5 ± 1.8,11.9 ± 1.1,12.6 ± 12,31.5 ± 1.5
CO[C@H]1C[C@@H]2CC[C@@H](C)[C@@](O)(O2)C(=O)C(=O)N2CCCC[C@H]2C(=O)O[C@H]([C@H](C)C[C@@H]2CC[C@@H](OCCO)[C@H](OC)C2)CC(=O)[C@H](C)/C=C(\C)[C@@H](O)[C@@H](OC)C(=O)[C@H](C)C[C@H](C)/C=C/C=C/C=C/1C [Everolimus],56 ± 3.1,63.7 ± 4.2,49.5 ± 6.8,71.5 ± 5.7,56.5 ± 4.8,59.2 ± 2.3,64.7 ± 2.1,59.7 ± 3.3,76.3 ± 15,50.9 ± 14,87.5 ± 11,88.3 ± 6.2,55.6 ± 18,67.6 ± 1.8,57.5 ± 21,70.7 ± 0.84,69.7 ± 18,66.8 ± 8.4,58 ± 11,42.7 ± 18,,,,,
